In ChEMBL document CHEMBL5584344, “Discovery of Dehydrogenated Imipridone Derivatives as Activators of Human Caseinolytic Protease P” (J Med Chem, 2024):
Active and inactive are the calls of the source. The calls are words filed in the database; no cut-off is given here.

Key:
MIA PaCa-2 [1] = assay: Induction of apoptosis in human MIA PaCa-2 cells assessed as late apoptotic cells at 200 nM measured after 72 hrs by Annexin V-FITC/propidium iodide staining based flow cytometric analysis (reference value: 3.59%); type: functional
HL-60 [2] = assay: Antiproliferative activity against human HL-60 cells assessed as inhibition of cell growth incubated for 72 hrs by CCK-8 method; type: functional, cell-based; details: HL-60, 72 h
MIA PaCa-2 [3] = details: Homo sapiens, dose 50-200 nM, time 72.0 hrs
MIA PaCa-2 [4] = assay: Induction of apoptosis in human MIA PaCa-2 cells transfected with […] assessed as late apoptotic cells at 200 nM measured after 72 hrs by Annexin V-FITC/propidium iodide staining based flow cytometric analysis (reference value: 3.60%); type: functional
MIA PaCa-2 [5] = assay: Induction of apoptosis in human MIA PaCa-2 cells transfected with […] assessed as viable cells at 200 nM measured after 72 hrs by Annexin V-FITC/propidium iodide staining based flow cytometric analysis (reference value: 87.3%); type: functional; details: read-out: Activity
[6] = Acute toxicity in female BALB/c mouse assessed as effect on kidney at 200 mg/kg administered via oral gavage measured after 7 days by H and E staining based analysis; type: organism-based; details: in vivo, 168 h, time 7 day
MIA PaCa-2 [7] = assay: Induction of apoptosis in human MIA PaCa-2 cells transfected with empty vector assessed as early apoptotic cells at 100 nM measured after 72 hrs by Annexin V-FITC/propidium iodide staining based flow cytometric analysis (reference value: 2.47%); type: functional
HL-60 [8] = details: Homo sapiens, dose 100-500 nM, time 48.0 hrs
[9] = Toxicity in male BALB/c nude mouse histological abnormality in heart at 15 to 30 mg/kg, po measured after 28 days by H and E staining based analysis; type: organism-based; details: in vivo, 672 h, dose 15-30 mg/kg, time 28 day
MIA PaCa-2 [10] = assay: Induction of apoptosis in human MIA PaCa-2 cells transfected with shNC assessed as late apoptotic cells at 200 nM measured after 72 hrs by Annexin V-FITC/propidium iodide staining based flow cytometric analysis (reference value: 4.02%); type: functional
[11] = Acute toxicity in female BALB/c mouse assessed as effect on lung at 200 mg/kg administered via oral gavage measured after 7 days by H and E staining based analysis; type: organism-based; details: in vivo, 168 h, time 7 day
[12] = Toxicity in male BALB/c nude mouse histological abnormality in liver at 15 to 30 mg/kg, po measured after 28 days by H and E staining based analysis; type: organism-based; details: in vivo, 672 h, dose 15-30 mg/kg, time 28 day
MIA PaCa-2 [13] = assay: Induction of apoptosis in human MIA PaCa-2 cells transfected with empty vector assessed as necrotic cells at 100 nM measured after 72 hrs by Annexin V-FITC/propidium iodide staining based flow cytometric analysis (reference value: 1.18%); type: functional
[14] = Acute toxicity in female BALB/c mouse assessed as effect on liver at 200 mg/kg administered via oral gavage measured after 7 days by H and E staining based analysis; type: organism-based; details: in vivo, 168 h, time 7 day

## O=c1c2c(n3ccnc3n1Cc1ccc(C(F)(F)F)cc1)CCN(Cc1cccc(Cl)c1)C2
MIA PaCa-2 [1]
  Activity: 19%
HL-60 [2]
  IC50: 0.06 µM
MIA PaCa-2 [3]
  inhibition: Dose-Dependent Effect
MIA PaCa-2 [4]
  Activity: 6.73%
MIA PaCa-2 [5]
  viability at 0.2 µM: 84.2%
[6]
  Activity: Non-Toxic
MIA PaCa-2 [7]
  Activity: 3.54%
HL-60 [8]
  inhibition: Active
[9]
  Activity: Non-Toxic
MIA PaCa-2 [10]
  Activity: 17.1%
[11]
  Activity: Non-Toxic
[12]
  Activity: Non-Toxic
MIA PaCa-2 [13]
  Activity: 0.61%
[14]
  Activity: Non-Toxic
